Reference: patent US20230416248A1, “COMPOUNDS AND USES THEREOF” (Foghorn Therapeutics Inc., priority 2020, published 2023)
One block for each compound: values may come before it.

What was measured:
BRM = biological target: T1, BRM (Homo sapiens, UniProt P51531); experiment: ATPase catalytic activity of BRM, ADP-Glo in vitro biochemical assay; conditions: for IC50: ADP-Glo ATPase assay, 30 nM BRM, 400 μM ATP; for Ratio*: ratio BRG1 IC50 / BRM IC50
T1 construct: made in house; host or cells: High Five insect cells
T1 sequence (P51531 whole entry): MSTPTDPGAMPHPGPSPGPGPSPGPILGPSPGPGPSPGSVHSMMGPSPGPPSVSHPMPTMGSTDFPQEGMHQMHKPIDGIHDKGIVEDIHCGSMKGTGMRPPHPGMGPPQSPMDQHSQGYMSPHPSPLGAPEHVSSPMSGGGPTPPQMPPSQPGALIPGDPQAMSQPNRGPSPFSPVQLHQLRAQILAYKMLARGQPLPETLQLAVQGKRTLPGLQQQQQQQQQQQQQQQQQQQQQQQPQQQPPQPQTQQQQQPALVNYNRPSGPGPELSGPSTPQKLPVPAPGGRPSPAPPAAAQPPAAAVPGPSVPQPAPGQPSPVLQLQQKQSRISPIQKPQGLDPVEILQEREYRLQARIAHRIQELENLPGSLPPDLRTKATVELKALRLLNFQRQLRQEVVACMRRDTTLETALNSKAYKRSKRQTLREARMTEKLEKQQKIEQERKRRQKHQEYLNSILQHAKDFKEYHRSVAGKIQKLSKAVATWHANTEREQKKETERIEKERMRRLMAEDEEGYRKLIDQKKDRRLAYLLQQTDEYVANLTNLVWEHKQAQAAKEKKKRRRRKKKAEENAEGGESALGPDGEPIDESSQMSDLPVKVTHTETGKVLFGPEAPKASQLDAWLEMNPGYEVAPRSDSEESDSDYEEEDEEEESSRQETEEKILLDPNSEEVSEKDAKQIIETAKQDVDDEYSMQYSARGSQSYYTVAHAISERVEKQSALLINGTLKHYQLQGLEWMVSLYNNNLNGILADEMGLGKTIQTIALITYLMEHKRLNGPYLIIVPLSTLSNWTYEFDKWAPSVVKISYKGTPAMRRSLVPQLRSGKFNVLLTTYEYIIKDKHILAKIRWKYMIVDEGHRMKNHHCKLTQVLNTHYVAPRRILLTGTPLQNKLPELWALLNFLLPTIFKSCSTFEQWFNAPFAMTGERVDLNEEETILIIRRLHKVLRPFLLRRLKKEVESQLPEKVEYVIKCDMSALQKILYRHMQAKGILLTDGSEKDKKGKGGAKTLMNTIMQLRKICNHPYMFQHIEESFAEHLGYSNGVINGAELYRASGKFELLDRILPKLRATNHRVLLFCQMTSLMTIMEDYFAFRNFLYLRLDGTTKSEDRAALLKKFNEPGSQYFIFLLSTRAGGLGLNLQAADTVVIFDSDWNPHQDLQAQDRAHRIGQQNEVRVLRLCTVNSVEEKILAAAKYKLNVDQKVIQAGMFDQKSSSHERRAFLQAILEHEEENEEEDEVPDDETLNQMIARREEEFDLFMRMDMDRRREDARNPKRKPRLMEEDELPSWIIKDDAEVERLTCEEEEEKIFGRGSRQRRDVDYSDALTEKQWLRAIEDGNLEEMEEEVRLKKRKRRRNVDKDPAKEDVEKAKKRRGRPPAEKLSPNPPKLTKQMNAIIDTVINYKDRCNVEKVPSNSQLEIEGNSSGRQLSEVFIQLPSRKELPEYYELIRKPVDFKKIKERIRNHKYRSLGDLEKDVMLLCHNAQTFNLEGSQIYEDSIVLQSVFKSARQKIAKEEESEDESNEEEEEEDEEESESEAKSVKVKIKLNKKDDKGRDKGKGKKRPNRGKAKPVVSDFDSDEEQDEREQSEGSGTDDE
Outline: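 ADP-Glo luminescence, after depletion of leftover ATP and conversion of ADP, reported the activity. The 1 h room-temperature reaction held 400 μM ATP, 20 nM salmon sperm DNA and 30 nM BRM in 20 mM Tris pH 8, 20 mM MgCl2, 50 mM NaCl, 0.1% Tween-20, 1 mM DTT.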

BRG-1 = biological target: T2, BRG-1 (Homo sapiens, UniProt P51532); experiment: ATPase catalytic activity of BRG-1, ADP-Glo in vitro biochemical assay; conditions: ADP-Glo ATPase assay, 30 nM BRG-1, 400 μM ATP; read-out: BRG1 IC50
T2 construct: made in house; host or cells: High Five insect cells
T2 sequence (P51532 whole entry): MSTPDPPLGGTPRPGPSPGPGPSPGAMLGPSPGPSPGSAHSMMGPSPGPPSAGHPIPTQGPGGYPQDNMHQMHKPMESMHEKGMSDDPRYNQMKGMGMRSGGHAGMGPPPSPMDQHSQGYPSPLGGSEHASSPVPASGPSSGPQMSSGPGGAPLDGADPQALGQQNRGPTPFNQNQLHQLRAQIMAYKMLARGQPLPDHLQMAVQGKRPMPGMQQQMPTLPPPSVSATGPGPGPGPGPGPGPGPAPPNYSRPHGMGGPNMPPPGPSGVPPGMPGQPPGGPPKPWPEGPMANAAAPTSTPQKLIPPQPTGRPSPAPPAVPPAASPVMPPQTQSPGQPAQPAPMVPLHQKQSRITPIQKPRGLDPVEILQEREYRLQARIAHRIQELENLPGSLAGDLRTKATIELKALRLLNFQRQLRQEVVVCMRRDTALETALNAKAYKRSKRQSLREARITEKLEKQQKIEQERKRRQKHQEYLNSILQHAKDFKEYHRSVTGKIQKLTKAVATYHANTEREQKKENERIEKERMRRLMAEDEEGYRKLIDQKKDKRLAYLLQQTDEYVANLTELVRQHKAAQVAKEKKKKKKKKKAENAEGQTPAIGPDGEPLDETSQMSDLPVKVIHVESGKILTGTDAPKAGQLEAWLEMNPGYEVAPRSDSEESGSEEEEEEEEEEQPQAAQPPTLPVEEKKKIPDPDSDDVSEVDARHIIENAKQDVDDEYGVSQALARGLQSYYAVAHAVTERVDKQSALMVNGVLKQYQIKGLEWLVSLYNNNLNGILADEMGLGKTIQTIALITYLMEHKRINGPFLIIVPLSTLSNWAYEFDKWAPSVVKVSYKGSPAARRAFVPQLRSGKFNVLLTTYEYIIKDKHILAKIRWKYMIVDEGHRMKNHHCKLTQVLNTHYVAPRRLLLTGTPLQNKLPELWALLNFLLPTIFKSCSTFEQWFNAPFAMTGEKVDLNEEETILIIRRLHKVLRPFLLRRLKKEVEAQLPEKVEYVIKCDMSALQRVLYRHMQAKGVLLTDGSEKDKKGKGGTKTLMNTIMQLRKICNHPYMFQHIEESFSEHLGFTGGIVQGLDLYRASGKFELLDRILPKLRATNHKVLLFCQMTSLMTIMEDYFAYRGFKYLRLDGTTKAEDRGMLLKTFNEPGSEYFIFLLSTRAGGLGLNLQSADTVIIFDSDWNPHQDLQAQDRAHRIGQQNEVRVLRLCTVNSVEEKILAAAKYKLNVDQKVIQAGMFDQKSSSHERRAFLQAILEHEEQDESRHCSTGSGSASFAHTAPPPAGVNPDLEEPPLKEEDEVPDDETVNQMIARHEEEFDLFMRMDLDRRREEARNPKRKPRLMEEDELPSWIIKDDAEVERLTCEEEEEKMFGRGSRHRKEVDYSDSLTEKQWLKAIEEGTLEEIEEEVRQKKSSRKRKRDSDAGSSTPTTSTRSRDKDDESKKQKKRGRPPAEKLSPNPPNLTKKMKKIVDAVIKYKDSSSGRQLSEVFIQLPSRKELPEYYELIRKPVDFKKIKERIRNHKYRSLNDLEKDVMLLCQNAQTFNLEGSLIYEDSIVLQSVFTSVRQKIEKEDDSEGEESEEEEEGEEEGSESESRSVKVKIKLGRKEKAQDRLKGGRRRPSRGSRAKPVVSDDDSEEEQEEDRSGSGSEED
Outline: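 Luminescence read-out: ADP formed by BRG-1 ATPase is converted to ATP and detected by luciferase. Residual ATP is first removed with ADP-Glo Reagent for 40 min at RT; detection reagent is then incubated 60 min at RT before reading.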

SMILES: CN(C)c1cc2c(cn1)N(c1ccc3cnc(CNC(=O)c4ccc5c(c4)S(=O)(=O)CCOC5)cc3n1)CCO2 [Compound 803]
IC50 (BRM): 8.1 nM
Ratio* (BRM): 12.88
IC50 (BRG-1): 105 nM

SMILES: O=C(NCc1cc2nc(N3CCOc4cc(C5CC5)c(F)c(F)c43)ccc2cn1)c1ccc2c(c1)S(=O)(=O)CCOC2 [Compound 805]
IC50 (BRM): 26.2 nM
Ratio* (BRM): 11.56
IC50 (BRG-1): 303 nM

SMILES: COc1nn(C(F)F)cc1-c1ccc2cnc(CNC(=O)c3ccc4c(c3)S(=O)(=O)CCOC4)cc2n1 [Compound 806]
IC50 (BRM): 92.3 nM
Ratio* (BRM): 8.67
IC50 (BRG-1): 801 nM

SMILES: COc1ncccc1-c1ccc2cnc(CNC(=O)c3ccc4c(c3)S(=O)(=O)CCOC4)cc2n1 [Compound 808]
IC50 (BRM): 84 nM
Ratio* (BRM): 12.50
IC50 (BRG-1): 1050 nM

SMILES: Cn1cc(-c2ccc3cnc(CNC(=O)c4ccc5c(c4)S(=O)(=O)CCOC5)cc3n2)c(OC(F)F)n1 [Compound 812]
IC50 (BRM): 45.8 nM
Ratio* (BRM): 14.46
IC50 (BRG-1): 662 nM

SMILES: O=C(NCc1cc2nc(N3CCOc4c3cnc(C3CC3)c4F)ccc2cn1)c1ccc2c(c1)S(=O)(=O)CCOC2 [Compound 813]
IC50 (BRM): 38.1 nM
Ratio* (BRM): 12.52
IC50 (BRG-1): 477 nM

SMILES: O=C(NCc1cc2nc(-c3ccccc3OCC3CC3)ccc2cn1)c1ccc2c(c1)S(=O)(=O)CCOC2 [Compound 815]
IC50 (BRM): 193 nM
Ratio* (BRM): 7.51
IC50 (BRG-1): 1450 nM

SMILES: [2H]C1([2H])Oc2ccc(C(=O)NCc3cc4nc(N5CCOc6ccc(C(F)F)nc65)ccc4cn3)cc2S(=O)(=O)C([2H])([2H])C1([2H])[2H] [Compound 818]
IC50 (BRM): 62.4 nM
Ratio* (BRM): 26.90
IC50 (BRG-1): 1680 nM

SMILES: O=C(NCc1cc2nc(-c3cccc(OCC4CC4)c3)ccc2cn1)c1ccc2c(c1)S(=O)(=O)CCOC2 [Compound 820]
IC50 (BRM): 96.1 nM
Ratio* (BRM): 14.31
IC50 (BRG-1): 1380 nM

SMILES: O=C(NCc1cc2cc(N3CCOc4cnc(C5CC5)nc43)ccc2cn1)c1ccc2c(c1)S(=O)(=O)CCOC2 [Compound 822]
IC50 (BRM): 36.7 nM
Ratio* (BRM): 12.47
IC50 (BRG-1): 458 nM

SMILES: Cc1ccc(-c2ccc3cnc(CNC(=O)c4ccc5c(c4)S(=O)(=O)CCOC5)cc3n2)c(=O)n1C [Compound 824]
IC50 (BRM): 742 nM
Ratio* (BRM): 6.49
IC50 (BRG-1): 4820 nM

Continued, values first:

IC50 (BRM): 15.8 nM
Ratio* (BRM): 40.93
IC50 (BRG-1): 646 nM
SMILES: O=C(NCc1cc2nc(N3CCOc4c(F)cc(C5CC5)nc43)ccc2cn1)c1ccc2c(c1)S(=O)(=O)CCOC2 [Compound 804]

IC50 (BRM): 19.1 nM
Ratio* (BRM): 25.47
IC50 (BRG-1): 486 nM
SMILES: [2H]C1([2H])OC([2H])([2H])C([2H])([2H])S(=O)(=O)c2cc(C(=O)NCc3cc4nc(N5CCOc6ccc(C(F)F)nc65)ccc4cn3)ccc21 [Compound 807]

IC50 (BRM): 6.9 nM
Ratio* (BRM): 39.28
IC50 (BRG-1): 269 nM
SMILES: C[C@@H]1C[C@H]1c1ccc2c(n1)N(c1ccc3cnc(CNC(=O)c4ccc5c(c4)S(=O)(=O)CCOC5)cc3n1)CCO2 [Compound 809]

IC50 (BRM): 8.3 nM
Ratio* (BRM): 22.29
IC50 (BRG-1): 185 nM
SMILES: C[C@H]1C[C@@H]1c1ccc2c(n1)N(c1ccc3cnc(CNC(=O)c4ccc5c(c4)S(=O)(=O)CCOC5)cc3n1)CCO2 [Compound 810]

IC50 (BRM): 21.4 nM
Ratio* (BRM): 10.40
IC50 (BRG-1): 222 nM
SMILES: O=C(NCc1cc2nc(N3CCCc4c(N5CCC5)ccnc43)ccc2cn1)c1ccc2c(c1)S(=O)(=O)CCOC2 [Compound 814]

IC50 (BRM): 42.3 nM
Ratio* (BRM): 18.04
IC50 (BRG-1): 764 nM
SMILES: COCc1cc(C)c2c(n1)N(c1ccc3cnc(CNC(=O)c4ccc5c(c4)S(=O)(=O)CCOC5)cc3n1)CCC2 [Compound 816]

IC50 (BRM): 12.4 nM
Ratio* (BRM): 11.55
IC50 (BRG-1): 143 nM
SMILES: CN(c1cnc2c(c1)OCCN2c1ccc2cnc(CNC(=O)c3ccc4c(c3)S(=O)(=O)CCOC4)cc2n1)C1CC(F)(F)C1 [Compound 817]

IC50 (BRM): 6.4 nM
Ratio* (BRM): 7.26
IC50 (BRG-1): 46.7 nM
SMILES: CN(c1cnc2c(c1)OCCN2c1ccc2cnc(CNC(=O)c3ccc4c(c3)S(=O)(=O)CCOC4)cc2n1)C1CCC1 [Compound 819]

IC50 (BRM): 79.7 nM
Ratio* (BRM): 12.03
IC50 (BRG-1): 959 nM
SMILES: COCc1cc2c(cn1)N(c1ccc3cnc(CNC(=O)c4ccc5c(c4)S(=O)(=O)CCOC5)cc3n1)CCC2 [Compound 821]

IC50 (BRM): 61.3 nM
Ratio* (BRM): 17.84
IC50 (BRG-1): 1090 nM
SMILES: O=C(NCc1cc2nc(N3CCCc4ccc(C(F)CF)nc43)ccc2cn1)c1ccc2c(c1)S(=O)(=O)CCOC2 (stereo not drawn) [Compound 823]

IC50 (BRM): 31.9 nM
Ratio* (BRM): 7.70
IC50 (BRG-1): 246 nM
SMILES: COc1ncc(F)c2c1CCCN2c1ccc2cnc(CNC(=O)c3ccc4c(c3)S(=O)(=O)CCOC4)cc2n1 [Compound 825]

IC50 (BRM): 13.1 nM
Ratio* (BRM): 11.63
IC50 (BRG-1): 153 nM
SMILES: O=C(NCc1cc2nc(N3CCOc4c3ncc(C3CC3)c4F)ccc2cn1)c1ccc2c(c1)S(=O)(=O)CCOC2 [Compound 827]
